Legend:
[1] = test system: MV-4-11 cells; experiment: Cell viability assay (CellTiter-Glo), MV-4-11; assay type: cell-based; conditions: Homo sapiens, MV4-11, 24 hours incubation, 1% FBS, read-out: Average pIC50 by molecule MV-4-11 (converted)
Outline: (§1)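 OPM-2, MV-4-11 and ARH-77 cells were grown in medium with 1% FBS and treated with compound in 1/3 dilutions from 30 uM (9–12 points, 0.5% DMSO). Viability was read by CellTiter-Glo luminescence after 24 hours and normalized to DMSO control.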

[2] = molecular target: T1, [MCL-1]-[compound of formula (I)]-[CRBN/DDB1] complex (Homo sapiens, UniProt Q07820+Q96SW2); experiment: AlphaLISA dose response ternary complex formation assay; assay type: binding; conditions: read-out: AlphaLISA dose response Average pEC50 by molecule (converted)
T1 sequence (Q07820 whole entry): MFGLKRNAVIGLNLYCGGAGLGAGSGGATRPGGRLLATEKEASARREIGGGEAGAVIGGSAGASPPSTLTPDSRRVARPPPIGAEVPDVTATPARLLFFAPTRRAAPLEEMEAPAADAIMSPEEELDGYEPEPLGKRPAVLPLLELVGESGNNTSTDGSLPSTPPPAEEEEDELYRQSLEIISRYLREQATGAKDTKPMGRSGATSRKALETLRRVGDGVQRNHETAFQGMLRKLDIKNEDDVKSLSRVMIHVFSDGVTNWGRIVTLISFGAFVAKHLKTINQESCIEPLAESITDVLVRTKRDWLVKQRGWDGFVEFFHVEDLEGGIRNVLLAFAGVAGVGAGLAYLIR
T1 sequence (Q96SW2 whole entry): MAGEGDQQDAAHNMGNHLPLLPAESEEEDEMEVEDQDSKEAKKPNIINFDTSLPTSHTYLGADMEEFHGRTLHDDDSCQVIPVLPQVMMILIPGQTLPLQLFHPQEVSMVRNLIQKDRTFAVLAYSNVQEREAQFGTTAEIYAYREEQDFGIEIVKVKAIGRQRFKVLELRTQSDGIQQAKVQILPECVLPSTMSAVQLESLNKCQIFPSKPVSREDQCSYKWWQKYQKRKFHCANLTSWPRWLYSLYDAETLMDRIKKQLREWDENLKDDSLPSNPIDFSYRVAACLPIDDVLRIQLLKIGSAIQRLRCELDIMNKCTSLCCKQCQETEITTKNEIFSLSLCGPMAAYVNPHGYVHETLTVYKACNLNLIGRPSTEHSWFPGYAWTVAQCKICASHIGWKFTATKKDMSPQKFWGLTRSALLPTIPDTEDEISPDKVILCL
T1 sequence (Q16531 whole entry partner): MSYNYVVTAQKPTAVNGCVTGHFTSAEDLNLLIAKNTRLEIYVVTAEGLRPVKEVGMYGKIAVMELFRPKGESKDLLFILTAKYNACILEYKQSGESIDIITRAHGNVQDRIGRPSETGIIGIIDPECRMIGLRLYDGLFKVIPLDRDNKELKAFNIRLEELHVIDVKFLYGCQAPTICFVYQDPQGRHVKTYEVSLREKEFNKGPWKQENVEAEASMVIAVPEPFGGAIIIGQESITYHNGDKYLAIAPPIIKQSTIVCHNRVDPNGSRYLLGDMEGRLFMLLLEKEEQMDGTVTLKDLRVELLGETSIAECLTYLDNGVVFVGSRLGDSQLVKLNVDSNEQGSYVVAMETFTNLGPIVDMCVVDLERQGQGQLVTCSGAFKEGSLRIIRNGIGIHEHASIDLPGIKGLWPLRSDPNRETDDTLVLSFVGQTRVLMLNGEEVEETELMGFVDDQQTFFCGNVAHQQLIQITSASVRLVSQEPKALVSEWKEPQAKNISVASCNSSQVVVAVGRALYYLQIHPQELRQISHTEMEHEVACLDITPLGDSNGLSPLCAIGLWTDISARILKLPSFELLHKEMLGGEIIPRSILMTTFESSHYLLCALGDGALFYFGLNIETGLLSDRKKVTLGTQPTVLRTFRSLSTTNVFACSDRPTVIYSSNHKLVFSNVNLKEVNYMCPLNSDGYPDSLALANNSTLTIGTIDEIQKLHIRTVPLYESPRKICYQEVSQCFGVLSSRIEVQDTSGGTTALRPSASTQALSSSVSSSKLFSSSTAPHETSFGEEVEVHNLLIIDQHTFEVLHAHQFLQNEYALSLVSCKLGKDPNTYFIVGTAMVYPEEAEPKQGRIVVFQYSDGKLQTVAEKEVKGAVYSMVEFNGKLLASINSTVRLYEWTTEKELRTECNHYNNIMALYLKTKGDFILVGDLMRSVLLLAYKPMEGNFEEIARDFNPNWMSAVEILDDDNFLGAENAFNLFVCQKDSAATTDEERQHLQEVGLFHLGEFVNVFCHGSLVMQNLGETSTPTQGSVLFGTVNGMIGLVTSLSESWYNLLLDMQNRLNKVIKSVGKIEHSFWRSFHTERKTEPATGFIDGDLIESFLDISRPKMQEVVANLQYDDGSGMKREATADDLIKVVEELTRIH
Outline: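 EC50 comes from dose–response of AlphaLISA luminescence (excitation 680, emission 615 nm), normalised between DMSO background and an internal positive control, with concentrations past the hook point dropped. Ternary complex formed by mixing bead-bound biotin-hMCL-1 and His-CRBN/DDB1 (protein solutions 40 and 200 nM) with compound in 2% DMSO, 30 min, 25 °C.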

[3] = molecular target: MCL-1 protein (Homo sapiens, UniProt Q07820); experiment: OPM-2 cells: MCL-1 protein degradation, Simple Western; assay type: cell-based; design: endogenous in cells; host or cells: OPM-2; conditions: OPM-2 cell line, 6 h treatment, 100 nM compound, vs DMSO
Sequence of MCL-1 protein (Q07820 whole entry): as the sequence (Q07820 whole entry) above
Excerpt: The effect of various compounds of the invention and the reference compounds on MCL-1protein degradation in the OPM-2 cell line was investigated, using the degradation assay protocol below.
OPM-2 cells were maintained in RPMI-1640 medium, supplemented with penicillin/streptomycin and 10% Fetal Bovine Serum (FBS). During the treatment, FBS concentration was reduced to 1%.
Compound stocks were pre-diluted in DMSO and added directly to the cells growth medium (final DMSO concentration: 0.5%).
OPM-2 cells were collected, centrifuged (250 rcf, 5 min), resuspended in a growth medium containing 1% FBS and counted. The cell suspension was then adjusted to 1×10^6 cell/ml using a growth medium containing 1% FBS. Afterwards, 0.5×10^6 cells were seeded on 24-well plates in 0.5 mL of medium per well. Immediately after seeding cells, compounds in appropriate concentrations were added to the cell culture medium.
Following the treatment with the compounds, cells were collected from the plates and suspended in a lysis buffer (2% SDS, 50 mM Tris, pH 8.0, 100 U/ml Pierce Universal Nuclease for Cell Lysis, cOmplete EDTA-free Protease Inhibitor Cocktail) and incubated on ice for 45 min.
The following steps, including sample loading, protein separation, immunoprobing or labelling, washes and detection analysis was performed using Jess from ProteinSimple, an automatic system for analyzing protein levels in cell lysates (12-230 kDa Jess or Wes separation module 8×25 capillaries, protein normalization assay, no. SM-PN01-1). The Protein of Interest was detected using MCL-1 (D35A5) Rabbit monoclonal antibody (Cell Signaling, #5453, LOT: 4). Antibody was diluted in a ratio of 1:100 in Antibody diluent.
[%] of protein reduction is calculated in comparison to the cells treated with DMSO, which stand for 0%.
The results for the 6 h treatment with 100 nM compounds are shown in Table 9, using the following labels: • <20% for 0-19% of MCL-1 protein reduction, • ≥20% for 20-39% of MCL-1 protein reduction, • ≥40% for 40-100% of MCL-1 protein reduction.

[4] = molecular target: T1, [MCL-1]-[compound of formula (I)]-[CRBN/DDB1] complex; experiment: HTRF ternary complex assay; assay type: binding; conditions: ternary complex formation; read-out: HTRF ternary complex Average pEC50 by molecule (converted)
Experimental: The effect of the bifunctional compounds of the invention on the formation of a ternary complex composed of [MCL-1]-[compound of formula (I)]-[CRBN/DDB1] was investigated.
Mix of protein solution were prepared: • 48 nM hMcl-1 and 105.6 nM CRBN was prepared in PPI Europium detection buffer with 2 mM DTT. • Acceptor and donor stock solutions were diluted 100 times in PPI Europium detection buffer. Equal volumes of both reagents were mixed. Finally giving 3 nM of Streptavidin-Eu cryptate […] and 6.67 nM of Anti-6× his-d2 […].
5 μl of protein mix was dispensed to all wells. The tested compounds in dose-response were dispensed onto a white 384-well low volume plate (Greiner, 784075). DMSO was backfilled to all wells, resulting in a final DMSO content of 0.5%. Wells containing only DMSO served as background. Next, 5 μl of solution with donor and acceptor was added to the wells.
The plate was sealed with transparent film and shaken using a VibroTurbulator for 60 see at level 3. The plate was then spun down shortly (10 s, 1000 rcf) and incubated at 25° C. for 180 min.
The read-out was performed with plate reader (Pherastar, BMG Labtech) in time resolved fluorescence mode. Filterset: TR 337 665 620.
The results were analyzed as follows: • 1) an average of fluorescence for background signal was calculated and used as a negative control; • 2) raw fluorescence values for tested compounds were normalized against negative controls; • 3) bell shape curve was fitted to a gaussian distribution using a non-linear least squares Gauss-Newton algorithm; • 4) EC50 and pEC50 values were determined.

[5] = test system: ARH-77 cells; experiment: Cell viability assay (CellTiter-Glo), ARH-77; assay type: cell-based; conditions: Homo sapiens, ARH-77, 24 hours incubation, 1% FBS, read-out: Average pIC50 by molecule ARH-77 (converted)
Outline: as §1

SMILES	IC50 [1] [nM]	EC50 [2] [nM]	Simple Western, % of protein reduction [3] [%]	EC50 [4] [nM]	IC50 [5] [nM]
Cc1c(-c2c(-c3ccc(F)o3)sc3ncnc(O[C@H](Cc4ccccc4OCc4ccnn4CC(F)(F)F)C(=O)NS(=O)(=O)CCNC(=O)CCOCCOCCNc4cccc5c4C(=O)N(C4CCC(=O)NC4=O)C5=O)c23)ccc(OCCN2CCN(C)CC2)c1Cl (stereo partly drawn) [Compound 260, (2R)-2-[(5-{3-chloro-2-methyl-4-[2-(4-methylpiperazin-1-yl)ethoxy]phenyl}-6-(5-fluorofuran-2-yl)thieno[2,3-d]pyrimidin-4-yl)oxy]-N-(2-{3-[2-(2-{[2-(2,6-dioxopiperidin-3-yl)-1,3-dioxo-2,3-dihydro-1H-isoindol-4-yl]amino}ethoxy)ethoxy]propanamido}ethanesulfonyl)-3-(2-{[1-(2,2,2-trifluoroethyl)-1H-pyrazol-5-yl]methoxy}phenyl)propanamide]	–	–	≥20	–	–
Cc1nn(C)c(C)c1-c1c(Cl)ccc2c(CCCOc3cccc4cc(F)ccc34)c(C(=O)O)n(CCCCN(C)C(=O)COc3cccc4c3CN(C3CCC(=O)NC3=O)C4=O)c12 (stereo not shown) [Compound 326, 6-chloro-1-[4-(2-{[2-(2,6-dioxopiperidin-3-yl)-1-oxo-2,3-dihydro-1H-isoindol-4-yl]oxy}-N-methylacetamido)butyl]-3-{3-[(6-fluoronaphthalen-1-yl)oxy]propyl}-7-(1,3,5-trimethyl-1H-pyrazol-4-yl)-1H-indole-2-carboxylic acid]	≤ 316	< 100	–	< 10	> 10000
Cc1nn(C)c(C)c1-c1c(Cl)ccc2c(CCCOc3cccc4cc(F)ccc34)c(C(=O)O)n(CCN(C)CCN(C)C(=O)COc3cccc4c3CN(C3CCC(=O)NC3=O)C4=O)c12 (stereo not shown) [Compound 327, 6-Chloro-1-(2-((2-(2-((2-(2,6-dioxopiperidin-3-yl)-1-oxoisoindolin-4-yl)oxy)-N-methylacetamido)ethyl)(methyl)amino)ethyl)-3-(3-((6-fluoronaphthalen-1-yl)oxy)propyl)-7-(1,3,5-trimethyl-1H-pyrazol-4-yl)-1H-indole-2-carboxylic acid]	≤ 100	< 100	–	< 10	> 10000
Cc1nn(C)c(C)c1-c1c(Cl)ccc2c(CCCOc3cccc4cc(F)ccc34)c(C(=O)O)n(CCCCCN(C)C(=O)COc3cccc4c3CN(C3CCC(=O)NC3=O)C4=O)c12 (stereo not shown) [Compound 328, 6-Chloro-1-(5-(2-((2-(2,6-dioxopiperidin-3-yl)-1-oxoisoindolin-4-yl)oxy)-N-methylacetamido)pentyl)-3-(3-((6-fluoronaphthalen-1-yl)oxy)propyl)-7-(1,3,5-trimethyl-1H-pyrazol-4-yl)-1H-indole-2-carboxylic acid]	≤ 31.6	< 100	–	< 100	> 3160
Cc1nn(C)c(C)c1-c1c(Cl)ccc2c(CCCOc3cccc4cc(F)ccc34)c(C(=O)O)n(CCCNC(=O)COc3cccc4c3CN(C3CCC(=O)NC3=O)C4=O)c12 (stereo not shown) [Compound 330, 6-Chloro-1-[3-(2-{[2-(2,6-dioxopiperidin-3-yl)-1-oxo-2,3-dihydro-1H-isoindol-4-yl]oxy}acetamido)propyl]-3-{3-[(6-fluoronaphthalen-1-yl)oxy]propyl}-7-(1,3,5-trimethyl-1H-pyrazol-4-yl)-1H-indole-2-carboxylic acid]	≤ 100	< 100	–	< 100	> 10000

Continued, in another order:

IC50 [1] [nM]	EC50 [2] [nM]	Simple Western, % of protein reduction [3] [%]	EC50 [4] [nM]	SMILES	IC50 [5] [nM]
≤ 1000	< 100	≥40	–	Cc1ccc2c(CCCOc3cccc4ccccc34)c(C(=O)O)n(CCN3CCN(C(=O)COc4cccc5c4C(=O)N(C4CCC(=O)NC4=O)C5=O)CC3)c2c1-c1c(C)nn(C)c1C (stereo not shown) [Compound 217, 1-(2-(4-(2-((2-(2,6-dioxopiperidin-3-yl)-1,3-dioxoisoindolin-4-yl)oxy)acetyl)piperazin-1-yl)ethyl)-6-methyl-3-(3-(naphthalen-1-yloxy)propyl)-7-(1,3,5-trimethyl-1H-pyrazol-4-yl)-1H-indole-2-carboxylic acid]	–
–	< 1000	≥20	–	Cc1nn(C)c(COc2ccc(N3CCN(S(=O)(=O)N(C)C)CC3)cc2)c1-c1cccc2c(CCCOc3cccc4ccccc34)c(C(=O)O)n(CCN3CCN(C(=O)CNc4cccc5c4C(=O)N(C4CCC(=O)NC4=O)C5=O)CC3)c12 (stereo not shown) [Compound 245, 7-(5-((4-(4-(N,N-dimethylsulfamoyl)piperazin-1-yl)phenoxy)methyl)-1,3-dimethyl-1H-pyrazol-4-yl)-1-(2-(4-((2-(2,6-dioxopiperidin-3-yl)-1,3-dioxoisoindolin-4-yl)glycyl)piperazin-1-yl)ethyl)-3-(3-(naphthalen-1-yloxy)propyl)-1H-indole-2-carboxylic acid]	–
–	–	≥20	–	Cc1nc2c(C(=O)NC3CCC(=O)NC3=O)c(OCC(=O)N3CCN(CCn4c(C(=O)O)c(CCCOc5cccc6ccccc56)c5ccc(Cl)c(-c6c(C)nn(C)c6C)c54)CC3)ccc2[nH]1 (stereo not shown) [Compound 264, 6-chloro-1-(2-(4-(2-((4-((2,6-dioxopiperidin-3-yl)carbamoyl)-2-methyl-1H-benzo[d]imidazol-5-yl)oxy)acetyl)piperazin-1-yl)ethyl)-3-(3-(naphthalen-1-yloxy)propyl)-7-(1,3,5-trimethyl-1H-pyrazol-4-yl)-1H-indole-2-carboxylic acid]	–
≤ 316	< 10	–	< 100	Cc1nn(C)c(C)c1-c1c(Cl)ccc2c(CCCOc3cccc4cc(F)ccc34)c(C(=O)O)n(CCN3CCN(CCOc4cccc5c4C(=O)N(C4CCC(=O)NC4=O)C5=O)CC3)c12 (stereo not shown) [Compound 321, 6-Chloro-1-(2-(4-(2-((2-(2,6-dioxopiperidin-3-yl)-1,3-dioxoisoindolin-4-yl)oxy)ethyl)piperazin-1-yl)ethyl)-3-(3-((6-fluoronaphthalen-1-yl)oxy)propyl)-7-(1,3,5-trimethyl-1H-pyrazol-4-yl)-1H-indole-2-carboxylic acid]	> 10000
≤ 100	< 100	–	< 100	Cc1nn(C)c(C)c1-c1c(Cl)ccc2c(CCCOc3cccc4ccc(F)cc34)c(C(=O)O)n(CCN3CCN(C(=O)COc4cccc5c4CN(C4CCC(=O)NC4=O)C5=O)CC3)c12 (stereo not shown) [Compound 354, 6-Chloro-1-(2-(4-(2-((2-(2,6-dioxopiperidin-3-yl)-1-oxoisoindolin-4-yl)oxy)acetyl)piperazin-1-yl)ethyl)-3-(3-((7-fluoronaphthalen-1-yl)oxy)propyl)-7-(1,3,5-trimethyl-1H-pyrazol-4-yl)-1H-indole-2-carboxylic acid]	> 10000

Reference: patent US20240294499A1, “TARGETED PROTEIN DEGRADATION USING BIFUNCTIONAL COMPOUNDS THAT BIND UBIQUITIN LIGASE AND TARGET MCL-1 PROTEIN” (Captor Therapeutics S.A., priority 2021, published 2024)
